In patent US20180147140A1, “Treatment and Prevention of ENT Infections” (priority 2016, published 2018):

System: chronic sinusitis
Experiment: Patient Case 1: self-reported Health Related Quality of Life Scale and symptoms
Type: in vivo, human
Details: treatments before the invention regime
Excerpt: Person in good health, whose daily med profile includes • Taking one statin generic drug daily • Taking one over the counter multiple vitamin daily • On average two medical exams each year • No diagnosed medical conditions or concerns
Symptoms—blocked nasal passages especially on the right side of the face, continuous hardened yellow translucent pus discharge from right nostril, minor periodic bleeding, nasal sound quality of voice, a propensity for cold virus to linger and a whistle sound while breathing through the nostrils.
The Kaiser treatment program consisted of a saline rinse bulb and recommendation of daily saline sinus rinsing along with a nasal steroid spray available over the counter. […] The patient continued occasional use of the regimen over the following 15 years with no noticeable improvement.
Treatment began on Mar. 9, 2016 with a new and unique product. The formulation used is Composition 1 in the Formulation Example.
Initial treatment was for 14 days, one dose daily in each nostril, approximately ¼ ounce (7.3 milliliters) administered with a nose dropper while the patient was lying down with chin inclined upward—sometimes with head over the edge of bed or pillow to increase the incline of the forehead to be lower than the chin. The patient remained unmoving for five minutes with no blowing of the nose to allow gravity saturation to reach the deep passages. […]

CC1(C)S[C@@H]2[C@H](NC(=O)[C@H](N)c3ccc(O)cc3)C(=O)N2[C@H]1C(=O)O [amoxicillin]
relief of sinusitis symptoms under earlier treatments: no relief from the sinusitis
